Measurements reported in article PMC8617681 (Pharmaceuticals, 2021).
Entries after “also recorded” stand apart in the source; their conditions may differ. Blank lines part the entries; values can stand above or below the compound they belong to.

Experiments:
human OATP1A2 = molecular target: T1, human OATP1A2 (Homo sapiens, UniProt P46721); test: Cellular uptake in OATP1A2-overexpressing HEK293 cells; type: in vitro ADME; details: 0.2 µM, 2.5 min incubation, HEK293 OATP1A2, positive control
T1 construct: Werner Siegmund and Dr. Markus Keiser (University of Greifswald); host or cells: HEK293
T1 sequence (P46721 1-670): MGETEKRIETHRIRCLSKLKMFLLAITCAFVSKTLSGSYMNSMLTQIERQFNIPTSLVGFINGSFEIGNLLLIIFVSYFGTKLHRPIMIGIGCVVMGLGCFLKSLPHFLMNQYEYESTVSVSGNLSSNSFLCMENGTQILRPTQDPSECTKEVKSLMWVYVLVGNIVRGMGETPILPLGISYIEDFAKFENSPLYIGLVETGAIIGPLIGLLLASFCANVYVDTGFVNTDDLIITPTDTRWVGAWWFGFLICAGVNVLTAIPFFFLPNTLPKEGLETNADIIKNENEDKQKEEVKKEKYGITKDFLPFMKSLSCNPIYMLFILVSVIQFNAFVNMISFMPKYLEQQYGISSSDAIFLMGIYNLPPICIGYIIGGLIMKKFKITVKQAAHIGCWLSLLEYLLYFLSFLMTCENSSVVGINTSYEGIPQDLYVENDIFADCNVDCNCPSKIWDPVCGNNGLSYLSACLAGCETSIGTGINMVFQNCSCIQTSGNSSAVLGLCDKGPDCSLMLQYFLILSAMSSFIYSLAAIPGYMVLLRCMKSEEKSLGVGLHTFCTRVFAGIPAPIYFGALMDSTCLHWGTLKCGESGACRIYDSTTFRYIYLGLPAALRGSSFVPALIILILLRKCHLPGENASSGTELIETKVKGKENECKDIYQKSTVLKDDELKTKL
Protocol: (§1) HEK293 cells, vector-transfected or human (h)SLCO1A2, hSLCO1B1 or hSLCO1B3 cDNA-transfected were kind gifts from Prof. Werner Siegmund and Dr. Markus Keiser (University of Greifswald, Greifswald, Germany). All the HEK293 cell lines were maintained in DMEM supplemented with 10% (v/v) FBS, 1% penicillin–streptomycin mix at 37 °C in 5% (v/v) CO2 and 500 μg/mL G418. Cells were first seeded in 12-well plates [coated with 50 mg/L poly (l-lysine) and 50 mg/L poly (l-ornithine)] at a density of 1.0 × 10^5 cells/well. For the uptake study, in order to induce the expression of OATP transporters, the cell culture medium was replaced with culture medium supplemented with 5 mM sodium butyrate 24 h before performing the uptake assay.
(§2) The uptake transport study was performed as described previously. […] The Krebs–Henseleit solution was prepared from Krebs–Henseleit-buffer modified powder and supplemented with 25 mM NaHCO3 and 2.5 mM CaCl2 adjusted to pH 6.4 with 1 M HCL. At 2.5 min, the incubation buffer was removed, and uptake was terminated by adding 1 mL of ice-cold Krebs–Henseleit buffer, followed by two times washing with 1 mL of ice-cold Krebs–Henseleit buffer. […] The cellular protein amount was determined by the Bradford method using 10 μL of the cell lysates with bovine serum albumin as a standard.

human OATP1B1 = molecular target: T2, human OATP1B1 (Homo sapiens, UniProt Q9Y6L6); test: Cellular uptake in OATP1B1-overexpressing HEK293 cells; type: in vitro ADME; details: 0.2 µM, 2.5 min incubation, HEK293 OATP1B1, positive control
T2 construct: Werner Siegmund and Dr. Markus Keiser (University of Greifswald); host or cells: HEK293
T2 sequence (Q9Y6L6 1-691): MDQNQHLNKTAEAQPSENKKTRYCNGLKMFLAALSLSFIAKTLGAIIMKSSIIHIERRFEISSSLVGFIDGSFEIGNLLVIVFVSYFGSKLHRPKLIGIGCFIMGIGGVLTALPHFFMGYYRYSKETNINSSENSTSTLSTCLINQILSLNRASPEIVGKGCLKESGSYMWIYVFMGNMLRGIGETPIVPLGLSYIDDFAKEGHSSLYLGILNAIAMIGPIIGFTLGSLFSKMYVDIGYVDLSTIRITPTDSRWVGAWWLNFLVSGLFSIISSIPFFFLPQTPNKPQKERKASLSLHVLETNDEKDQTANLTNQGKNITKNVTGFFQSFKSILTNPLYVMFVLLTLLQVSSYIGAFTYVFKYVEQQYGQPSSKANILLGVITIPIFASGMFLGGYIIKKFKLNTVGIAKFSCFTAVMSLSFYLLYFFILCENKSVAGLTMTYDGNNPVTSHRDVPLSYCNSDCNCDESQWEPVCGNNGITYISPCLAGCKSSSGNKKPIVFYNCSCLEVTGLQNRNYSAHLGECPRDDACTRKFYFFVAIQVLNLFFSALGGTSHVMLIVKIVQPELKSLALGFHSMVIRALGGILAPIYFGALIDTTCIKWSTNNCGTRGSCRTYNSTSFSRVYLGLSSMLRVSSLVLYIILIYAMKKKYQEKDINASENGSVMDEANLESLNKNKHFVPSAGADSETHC
Protocol: as §1, §2

human OATP1B3 = molecular target: T3, human OATP1B3 (Homo sapiens, UniProt Q9NPD5); test: Cellular uptake in OATP1B3-overexpressing HEK293 cells; type: in vitro ADME; details: 0.2 µM, 2.5 min incubation, HEK293 OATP1B3, positive control
T3 construct: Werner Siegmund and Dr. Markus Keiser (University of Greifswald); host or cells: HEK293
T3 sequence (Q9NPD5 1-702): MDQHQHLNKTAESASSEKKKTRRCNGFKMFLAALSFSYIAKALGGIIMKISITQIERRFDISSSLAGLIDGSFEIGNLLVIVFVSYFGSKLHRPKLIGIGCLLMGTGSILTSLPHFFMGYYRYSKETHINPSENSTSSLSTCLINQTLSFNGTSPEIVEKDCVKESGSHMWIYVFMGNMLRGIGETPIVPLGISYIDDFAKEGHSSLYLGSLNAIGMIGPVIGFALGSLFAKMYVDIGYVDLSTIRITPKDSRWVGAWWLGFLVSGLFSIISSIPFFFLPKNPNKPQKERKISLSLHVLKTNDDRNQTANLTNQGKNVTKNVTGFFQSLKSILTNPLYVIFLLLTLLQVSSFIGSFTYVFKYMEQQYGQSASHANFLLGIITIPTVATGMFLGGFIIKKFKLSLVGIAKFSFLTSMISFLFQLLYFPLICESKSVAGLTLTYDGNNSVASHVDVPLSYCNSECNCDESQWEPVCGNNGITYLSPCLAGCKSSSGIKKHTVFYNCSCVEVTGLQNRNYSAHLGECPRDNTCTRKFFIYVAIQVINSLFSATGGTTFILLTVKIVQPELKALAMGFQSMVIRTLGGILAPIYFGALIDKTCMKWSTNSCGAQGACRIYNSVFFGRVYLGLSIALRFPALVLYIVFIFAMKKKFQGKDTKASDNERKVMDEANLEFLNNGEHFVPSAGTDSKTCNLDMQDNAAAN
Protocol: as §1, §2

[1] = parameters: method as in PMID 30253203; details: oral brigatinib, Abcb1a/1b;Abcg2-/- mice; cited from earlier work
[2] = oral, mice; cited from earlier work

uptake compared to vector control cells (human OATP1A2): efficiently taken up | uptake compared to vector control cells (human OATP1B1): efficiently taken up | uptake compared to vector control cells (human OATP1B3): efficiently taken up
Structure (SMILES): CC(C)c1nc(N(C)S(C)(=O)=O)nc(-c2ccc(F)cc2)c1/C=C/[C@@H](O)C[C@@H](O)CC(=O)O [Rosuvastatin]

Structure (SMILES): COc1cc(N2CCC(N3CCN(C)CC3)CC2)ccc1Nc1ncc(Cl)c(Nc2ccccc2P(C)(C)=O)n1 [brigatinib]
acute toxicity [1]: severe and even lethal acute toxicity; also recorded: sometimes severe and lethal toxicity

Structure (SMILES): COc1cc2c(cc1OC)CN(CCc1ccc(NC(=O)c3cccc4c(=O)c5cccc(OC)c5[nH]c34)cc1)CC2 [elacridar]
Tmax [2]: about 4 h
